Key:
[1] = target: Adenosine receptor A2a (Rattus norvegicus, UniProt P30543); assay: Displacement of [3H]ZM241385 from adenosine A2A receptor in rat brain membrane; format: cell membranes
[2] = target: T1, Adenosine receptor A1 (Rattus norvegicus, UniProt P25099); assay: Displacement of [3h]DPCPX from adenosine A receptor in rat cerebral cortex membrane
T1 sequence (P25099 whole entry): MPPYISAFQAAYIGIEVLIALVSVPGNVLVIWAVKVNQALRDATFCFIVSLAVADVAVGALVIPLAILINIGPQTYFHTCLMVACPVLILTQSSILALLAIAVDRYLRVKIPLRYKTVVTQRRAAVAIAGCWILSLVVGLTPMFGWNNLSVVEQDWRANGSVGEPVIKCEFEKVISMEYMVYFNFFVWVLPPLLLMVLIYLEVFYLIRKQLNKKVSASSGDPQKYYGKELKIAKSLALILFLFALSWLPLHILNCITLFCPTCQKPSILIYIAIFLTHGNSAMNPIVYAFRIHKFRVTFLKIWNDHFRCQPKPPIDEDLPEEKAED

Adenosine receptor A2a, sequence (P30543 whole entry): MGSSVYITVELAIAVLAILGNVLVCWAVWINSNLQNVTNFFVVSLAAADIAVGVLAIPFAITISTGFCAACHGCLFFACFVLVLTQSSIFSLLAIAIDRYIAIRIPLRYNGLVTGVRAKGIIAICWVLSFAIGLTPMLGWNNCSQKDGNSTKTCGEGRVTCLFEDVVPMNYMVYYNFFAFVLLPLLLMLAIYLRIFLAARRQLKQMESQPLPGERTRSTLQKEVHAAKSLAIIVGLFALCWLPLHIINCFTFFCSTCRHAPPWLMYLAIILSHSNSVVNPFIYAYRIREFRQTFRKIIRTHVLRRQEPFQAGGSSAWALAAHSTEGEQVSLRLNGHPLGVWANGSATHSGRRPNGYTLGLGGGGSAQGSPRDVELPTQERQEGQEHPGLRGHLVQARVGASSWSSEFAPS

SMILES | Ki [1] | Ki [2]
Nc1nc(N2CCN3C[C@@H](COc4cccc5cnccc45)CC[C@H]3C2)nc2nc(-c3ccco3)nn12 (racemic) | 6 nM (antagonist) | 3500 nM
Nc1nc(N2CCN3C[C@H](COc4ccncc4)CC[C@H]3C2)nc2nc(-c3ccco3)nn12 (racemic) | 81 nM (antagonist) | > 1000 nM
Nc1nc(N2CCN3C[C@H](CN(Cc4cccnc4)Cc4cccnc4)CC[C@H]3C2)nc2nc(-c3ccco3)nn12 | 4 nM (antagonist) | 7800 nM
Nc1nc(N2CCN3C[C@@H](COc4ncnc5ccccc45)CC[C@H]3C2)nc2nc(-c3ccco3)nn12 (racemic) | 19 nM (antagonist) | > 500 nM
Nc1nc(N2CCN3C[C@H](COc4ccc5ccccc5n4)CC[C@H]3C2)nc2nc(-c3ccco3)nn12 | 7 nM (antagonist) | > 1000 nM
Nc1nc(N2CCN3C[C@H](COc4cc5ccccc5cn4)CC[C@H]3C2)nc2nc(-c3ccco3)nn12 (racemic) | 130 nM (antagonist) | 710 nM (antagonist)
Nc1nc(NC[C@@H]2CC[C@@H]3CN(c4cc(F)cc(F)c4)CCN3C2)nc2nc(-c3ccco3)nn12 (racemic) | 49 nM (antagonist) | > 500 nM
Nc1nc(N2CCN3C[C@@H](COc4ccccn4)CC[C@H]3C2)nc2nc(-c3ccco3)nn12 (racemic) | 20 nM (antagonist) | > 1000 nM
Nc1nc(NC[C@H]2CC[C@@H]3CN(c4ncccn4)CCN3C2)nc2nc(-c3ccco3)nn12 (racemic) | 230 nM (antagonist) | > 1000 nM
Nc1nc(N2CCN3C[C@H](COc4ccccn4)CC[C@H]3C2)nc2nc(-c3ccco3)nn12 (racemic) | 41 nM (antagonist) | > 500 nM
Nc1nc(N2CCN3C[C@@H](CN(Cc4ccncc4)Cc4ccncc4)CC[C@H]3C2)nc2nc(-c3ccco3)nn12 (racemic) | 3 nM (antagonist) | 6000 nM
Nc1nc(N2CCN3C[C@@H](COc4ccccc4F)CC[C@H]3C2)nc2nc(-c3ccco3)nn12 (racemic) | 0.9 nM (antagonist) | > 500 nM
Cc1nn(C)c(Cl)c1CNC[C@H]1CC[C@H]2CN(c3nc(N)n4nc(-c5ccco5)nc4n3)CCN2C1 | 30 nM (antagonist) | > 500 nM
Nc1nc(N2CCN3C[C@@H](COc4ccncc4)CC[C@H]3C2)nc2nc(-c3ccco3)nn12 (racemic) | 25 nM (antagonist) | > 1000 nM
Nc1nc(N2CCN3C[C@@H](CN(Cc4ccco4)Cc4ccco4)CC[C@H]3C2)nc2nc(-c3ccco3)nn12 | 47 nM (antagonist) | > 1000 nM
Nc1nc(N2CCN3C[C@H](COc4ncnc5ccccc45)CC[C@H]3C2)nc2nc(-c3ccco3)nn12 (racemic) | 37 nM (antagonist) | > 1000 nM
Nc1nc(N2CCN3C[C@@H](CN(Cc4ccccn4)Cc4ccccn4)CC[C@H]3C2)nc2nc(-c3ccco3)nn12 | 9 nM (antagonist) | > 500 nM
Nc1nc(N2CCN3C[C@@H](COc4ccc(F)cc4F)CC[C@H]3C2)nc2nc(-c3ccco3)nn12 (racemic) | 70 nM (antagonist) | > 500 nM
Nc1nc(N2CCN3C[C@H](COc4cccc5cnccc45)CC[C@H]3C2)nc2nc(-c3ccco3)nn12 (racemic) | 73 nM (antagonist) | 210 nM (antagonist)
Nc1nc(N2CCN3C[C@@H](CN(Cc4ccc(F)cc4F)Cc4ccc(F)cc4F)CC[C@H]3C2)nc2nc(-c3ccco3)nn12 | > 500 nM | > 1000 nM

SMILES | Ki [1] | Ki [2]
Nc1nc(N2CCN3C[C@H](COc4cccc(F)c4)CC[C@H]3C2)nc2nc(-c3ccco3)nn12 (mixture of isomers) | 53 nM (antagonist) | 960 nM (antagonist)
Nc1nc(N2CCN3CCC[C@@H]3C2)cc2nc(-c3ccco3)nn12 | 63 nM (antagonist) | 1100 nM
Nc1nc(N2CCN3C[C@@H](COc4cccnc4)CC[C@H]3C2)nc2nc(-c3ccco3)nn12 (racemic) | 0.3 nM (antagonist) | 1400 nM
Nc1nc(NC[C@@H]2CC[C@@H]3CN(Cc4ccc(F)cc4F)CCN3C2)nc2nc(-c3ccco3)nn12 (racemic) | 130 nM (antagonist) | > 500 nM
Nc1nc(N2CCN3C[C@@H](CN(Cc4cccnc4)Cc4cccnc4)CC[C@H]3C2)nc2nc(-c3ccco3)nn12 | 2 nM (antagonist) | > 1000 nM
Nc1nc(N2CCN3C[C@@H](Cn4ccnc4)CC[C@H]3C2)nc2nc(-c3ccco3)nn12 (racemic) | 0.3 nM (antagonist) | 1200 nM
Nc1nc(N2CCN3C[C@@H](COc4cc5ccccc5cn4)CC[C@H]3C2)nc2nc(-c3ccco3)nn12 (racemic) | 36 nM (antagonist) | > 1000 nM
Nc1nc(N2CCN3C[C@@H](Cn4cncn4)CC[C@H]3C2)nc2nc(-c3ccco3)nn12 (racemic) | 4 nM (antagonist) | > 500 nM
Nc1nc(N2CCN3C[C@@H](CNCc4cccnc4)CC[C@H]3C2)nc2nc(-c3ccco3)nn12 | 51 nM (antagonist) | > 500 nM
Nc1nc(N2CCN3[C@@H](COc4ccccc4)CCC[C@H]3C2)nc2nc(-c3ccco3)nn12 (racemic) | 13 nM (antagonist) | > 500 nM
Nc1nc(N2CCN3C[C@@H](COc4ncnc5[nH]ncc45)CC[C@@H]3C2)nc2nc(-c3ccco3)nn12 (racemic) | 5 nM (antagonist) | > 500 nM
Nc1nc(NC[C@@H]2CC[C@@H]3CN(Cc4ccc(F)cc4F)CCN3C2)cc2nc(-c3ccco3)nn12 | 230 nM (antagonist) | > 1000 nM
COC(=O)c1nc(Cl)c(N2CCN3C[C@H](CNc4nc(N)n5nc(-c6ccco6)nc5n4)CC[C@@H]3C2)nc1N (racemic) | 34 nM (antagonist) | > 1000 nM
Nc1nc(N2CCN3C[C@@H](COc4ccccc4)CC[C@H]3C2)nc2nc(-c3ccco3)nn12 (racemic) | 21 nM (antagonist) | > 500 nM
Nc1nc(N2CCN3C[C@@H](CNCc4ccncc4)CC[C@H]3C2)nc2nc(-c3ccco3)nn12 (racemic) | 36 nM (antagonist) | > 500 nM
Nc1nc(N2CCNCC2)nc2nc(-c3ccco3)nn12 | > 5000 nM | –
Nc1cc(N2CCN3[C@@H](COc4cccnc4)CCC[C@H]3C2)nc2nc(-c3ccco3)nn12 (racemic) | 80 nM (antagonist) | > 500 nM
COc1ccc(OC[C@@H]2CC[C@H]3CN(c4nc(N)n5nc(-c6ccco6)nc5n4)CCN3C2)cc1 (racemic) | 70 nM (antagonist) | > 500 nM
Nc1nc(N2CCN3C[C@H](COc4ccccc4)CC[C@H]3C2)nc2nc(-c3ccco3)nn12 (racemic) | 53 nM (antagonist) | > 500 nM

The next lines start with the values.

Ki [1] | Ki [2] | SMILES
2 nM (antagonist) | 3500 nM | NC[C@@H]1CC[C@H]2CN(c3nc(N)n4nc(-c5ccco5)nc4n3)CCN2C1
76 nM (antagonist) | > 1000 nM | Nc1cc(N2CCN3[C@@H](COc4ccc5[nH]ccc5c4)CCC[C@H]3C2)nc2nc(-c3ccco3)nn12 (racemic)
860 nM (antagonist) | > 1000 nM | Nc1cc(N2CCN3C[C@H](CO)CC[C@H]3C2)nc2nc(-c3ccco3)nn12 (racemic)
140 nM (antagonist) | > 500 nM | Nc1nc(N2CCN3CCCCC3C2)cc2nc(-c3ccco3)nn12 (racemic)
370 nM (antagonist) | > 500 nM | NC[C@@H]1CC[C@H]2CN(c3cc(N)n4nc(-c5ccco5)nc4n3)CCN2C1
45 nM (antagonist) | > 500 nM | Nc1cc(N2CCN3C[C@@H](COc4ccccc4)CC[C@H]3C2)nc2nc(-c3ccco3)nn12 (racemic)
610 nM (antagonist) | > 500 nM | Nc1cc(N2CCN3[C@@H](CO)CCC[C@H]3C2)nc2nc(-c3ccco3)nn12 (racemic)
16 nM (antagonist) | > 500 nM | NC[C@H]1CC[C@H]2CN(c3nc(N)n4nc(-c5ccco5)nc4n3)CCN2C1 (racemic)
47 nM (antagonist) | > 1000 nM | Nc1nc(N2CCN3C[C@@H](CNc4ncccn4)CC[C@H]3C2)cc2nc(-c3ccco3)nn12
38 nM (antagonist) | > 500 nM | Nc1cc(N2CCN3CCCCC3C2)nc2nc(-c3ccco3)nn12 (racemic)
45 nM (antagonist) | > 1000 nM | Nc1nc(N2CCN3C[C@H](CNc4ncccn4)CC[C@H]3C2)nc2nc(-c3ccco3)nn12
56 nM (antagonist) | > 500 nM | NC[C@H]1CC[C@H]2CN(c3cc4nc(-c5ccco5)nn4c(N)n3)CCN2C1
9 nM (antagonist) | 1500 nM | Nc1nc(N2CCN3C[C@@H](CNc4ncccn4)CC[C@H]3C2)nc2nc(-c3ccco3)nn12 (racemic)
490 nM (antagonist) | > 1000 nM | Nc1nc(N2C[C@@H]3CCCN3C[C@@H]2Cc2ccccc2)nc2nc(-c3ccco3)nn12
12 nM (antagonist) | 860 nM (antagonist) | Nc1nc(N2CCN3CCCCC3C2)nc2nc(-c3ccco3)nn12 (racemic)
830 nM (antagonist) | > 500 nM | Nc1cc(N2CCN3[C@@H](COc4ccc5cccnc5c4)CCC[C@H]3C2)nc2nc(-c3ccco3)nn12 (racemic)
110 nM (antagonist) | > 500 nM | NC[C@H]1CC[C@H]2CN(c3cc(N)n4nc(-c5ccco5)nc4n3)CCN2C1
3 nM (antagonist) | 1300 nM | Nc1nc(N2CCN3[C@@H](CO)CCC[C@H]3C2)nc2nc(-c3ccco3)nn12 (racemic)
71 nM (antagonist) | 6100 nM | Nc1nc(N2CCN3C[C@H](CO)CC[C@H]3C2)nc2nc(-c3ccco3)nn12 (racemic)

Reference: ChEMBL document CHEMBL1149249 (J Med Chem, 2004)
